Measured values: ChEMBL document CHEMBL5346931, “Design, synthesis, and repurposing of O6-aminoalkyl-sulfuretin analogs towards discovery of potential lead compounds as antileishmanial agents” (Eur J Med Chem, 2023)

Assays:
Leishmania donovani [1] = experiment: Antileishmanial activity against Leishmania donovani promastigotes assessed as parasitic growth inhibition at 50 uM incubated for 3 days by resazurin dye based assay relative to control; format: functional; settings: 72 h, time 3 day
Leishmania donovani [2] = experiment: Antileishmanial activity against Leishmania donovani promastigotes assessed as parasitic growth inhibition at 25 uM incubated for 3 days by resazurin dye based assay relative to control; format: functional; settings: 72 h, time 3 day
Leishmania donovani [3] = experiment: Antileishmanial activity against Leishmania donovani promastigotes assessed as parasitic growth inhibition incubated for 3 days by resazurin dye based assay; format: functional, organism-based; settings: 72 h
Leishmania donovani [4] = experiment: Antileishmanial activity against Leishmania donovani amastigotes infected in human THP-1 cells assessed as inhibition of intracellular parasite number incubated for 72 hrs by DAPI staining based assay; format: functional, organism-based; settings: THP-1, 72 h
Leishmania donovani [5] = experiment: Antileishmanial activity against Leishmania donovani amastigotes infected in human THP-1 cells assessed as inhibition of parasite infection incubated for 72 hrs by DAPI staining based assay; format: functional, organism-based; settings: THP-1, 72 h
[6] = Cytotoxicity against human THP-1 cells; format: toxicity, cell-based

| IC50 (Leishmania donovani [4]) | IC50 (Leishmania donovani [5]) | SMILES | inhibition at 50 µM (Leishmania donovani [1]) | inhibition at 25 µM (Leishmania donovani [2]) | IC50 (Leishmania donovani [3]) | CC50 [6] |
| --- | --- | --- | --- | --- | --- | --- |
| 31.5 µM | 34.8 µM | COc1ccc(/C=C2\Oc3cc(OCCN4CCCCC4)ccc3C2=O)cc1 | 99% | 104% | 4.3 µM | 40.7 µM |
| 15.8 µM | 22.6 µM | COc1ccc(/C=C2\Oc3cc(OCCN4CCCC4)ccc3C2=O)cc1 | 115% | 108% | 4.8 µM | 21.5 µM |
| 4.6 µM | 11.1 µM | COc1ccc(OC)c(/C=C2\Oc3cc(OCCN4CCCC4)ccc3C2=O)c1 | 116% | 115% | 4.1 µM | 10.5 µM |
| 15.7 µM | 27.3 µM | COc1cc(/C=C2\Oc3cc(OCCN4CCCC4)ccc3C2=O)cc(OC)c1OC | 133% | 126% | 3.1 µM | 26.2 µM |
| 8.2 µM | 21.2 µM | COc1ccccc1/C=C1\Oc2cc(OCCCN3CCCC3)ccc2C1=O | 110% | 107% | 4.1 µM | 14.3 µM |
| > 100 µM | 26.4 µM | COc1cccc(/C=C2\Oc3cc(OCCCN4CCCC4)ccc3C2=O)c1OC | 116% | 109% | 5.4 µM | 33.5 µM |
| 4.4 µM | 6.3 µM | COc1ccc(OC)c(/C=C2\Oc3cc(OCCCN4CCCC4)ccc3C2=O)c1 | 103% | 103% | 3.7 µM | 6.6 µM |
| 22.3 µM | 29.5 µM | COc1ccc(/C=C2\Oc3cc(OCCCN4CCCCC4)ccc3C2=O)cc1OC | 125% | 119% | 2.6 µM | 28.4 µM |
| 14.5 µM | 17.1 µM | CCN(CC)CCCOc1ccc2c(c1)O/C(=C\c1cccc(OC)c1)C2=O | 118% | 114% | 4.6 µM | 19.3 µM |
| > 100 µM | 27.4 µM | CCN(CC)CCOc1ccc2c(c1)O/C(=C\c1cccc(OC)c1)C2=O | 121% | 115% | 8.6 µM | 39 µM |
| 2 µM | 7.7 µM | CCCCCCCCCCCCCCCCCCOCC(COP(=O)([O-])OCC[N+](C)(C)C)OC (stereo unspecified) [EDELFOSINE] | 108% | 108% | 3.9 µM | 12.9 µM |

Further lines, the compound ahead of its results:

| SMILES | IC50 (Leishmania donovani [4]) | IC50 (Leishmania donovani [5]) | inhibition at 50 µM (Leishmania donovani [1]) | inhibition at 25 µM (Leishmania donovani [2]) | IC50 (Leishmania donovani [3]) | CC50 [6] |
| --- | --- | --- | --- | --- | --- | --- |
| COc1ccc2c(c1)O/C(=C\c1ccc(O)c(O)c1)C2=O |  |  | 108% | 105% | 26.4 µM |  |
| COc1ccc(/C=C2\Oc3cc(OCCN4CCCCC4)ccc3C2=O)cc1OC | 25.5 µM | 29.7 µM | 127% | 122% | 2.5 µM | 27.4 µM |
| COc1ccccc1/C=C1\Oc2cc(OCCN3CCCC3)ccc2C1=O |  |  | 71% | 69% | > 100 µM |  |
| COc1cccc(/C=C2\Oc3cc(OCCN4CCCC4)ccc3C2=O)c1 | 22.9 µM | 26.7 µM | 117% | 112% | 4.8 µM | 28.9 µM |
| COc1ccc(/C=C2\Oc3cc(OCCCN4CCCC4)ccc3C2=O)cc1OC | 16.9 µM | 26.2 µM | 124% | 120% | 3.1 µM | 26.9 µM |
| COc1cc(/C=C2\Oc3cc(OCCCN4CCCC4)ccc3C2=O)cc(OC)c1 | 14.3 µM | 14 µM | 102% | 104% | 2.8 µM | 15.3 µM |
| COc1ccc(/C=C2\Oc3cc(OCCCCCN4CCCCC4)ccc3C2=O)cc1OC | 17.1 µM | 24.1 µM | 124% | 115% | 2.9 µM | 26.1 µM |
| CCN(CC)CCOc1ccc2c(c1)O/C(=C\c1ccccc1OC)C2=O | 9.9 µM | 13.3 µM | 115% | 110% | 5.3 µM | 17.2 µM |
| COc1cccc(/C=C2\Oc3cc(OCCN4CCOCC4)ccc3C2=O)c1 |  |  | 105% | 80% | 27 µM |  |
